Entries after “also recorded” stand apart in the source; their conditions may differ. Where a SMILES comes first, the peptide text is derived from it. The star is where a group is joined. Cbz = O=C(OCc1ccccc1)*; CH2F = FC*
Columns and labels:
[1] = system: engineered MDA-MB-468 human breast cancer cells; assay: TUNEL assay with flow cytometry on engineered cells; type: cell-based; conditions: 2 μM inhibitor added 6 hours after doxycycline, 24 hr total
Procedure: TUNEL assay on engineered MDA-MB-468 human breast cancer cells after 24 hours of exposure to 2 μg/ml Doxycycline.
(§1) Furthermore, using a specific inhibitor for caspase 8 eliminated the death induced by the C-terminal p53 palindromic tetrapeptide expression. The cleavage of the DNA repair signal protein poly-adenosyl-ribose polymerase (PARP), a key indicator of apoptosis, was also observed with the C-terminal p53 palindromic tetramer expression (FIGS. 5 and 6). Finally, one of the later events to occur as cells are undergoing apoptosis is the endonuclease cleavage of chromatin DNA at the DNA linker site between nucleosomes. These DNA fragments can be end-labeled with fluorescent-dUTP with the use of terminal deoxynucleotidyl transferase. This technique, called TUNEL, is extremely sensitive for the detection of apoptosis. We used a commercial TUNEL assay (Medical & Biological Labs, Nagoya, Japan) with flow cytometry to examine these engineered cells. By this assay, 80% of the cells were killed with induction of the 4 repeat by doxycycline treatment (FIG. 7). Furthermore, by using a specific inhibitor for caspase 8, IETD-FMK ([…], Nagoya, Japan), death induced by the C-terminal p53 palindromic peptide expression (FIG. 7) was eliminated. All of these findings support an apoptotic mechanism of cell death by this peptide.

[2] = system: MDA-MB-468 human breast cancer cells; assay: Propidium iodide staining / flow cytometry (sub-G1) of cells exposed to purified peptide; type: cell-based; conditions: 30 uM peptide, 6 hours
Procedure: Effects of the C-Terminal p53 Palindromic Tetrapeptide on Cells in Culture. MDA-MB-468 human breast cancer cells were grown in culture and exposed for 6 hours with no peptide (control) or with 30 μM of either the single p53 C-terminal peptide fused to the Ant carrier (p53-Ant) or with the His tagged p53 palindromic tetrapeptide fused to the Ant carrier (4 Repeat). The DNA within the cells was then stained with propidium iodide and cell particles were assayed by flow cytometry. The percent within each graph represents the percent cell particles with less than a diploid amount of DNA, indicative of apoptotic cells (sub G1 population).
In order to test the effect of the C-terminal p53 palindromic peptide cloned in E. Coli on cells in culture, the purified peptide was incubated at 30 μM with the human breast cancer cell line MDA-MB-468, and the effects compared to original monomer or single C-terminal peptide. Prior experiments had shown that exposure at this concentration was less than the IC50 for the original peptide. […] The DNA content was then quantified by flow cytometry in a FACSCalibur Cell Sorter (BD Bioscience, San Diego, Calif.). Cell cycle profiles were obtained, and the percentage of cells containing less than the diploid amount of DNA, indicative of cell undergoing cell death by apoptosis (sub-G1 peak), was quantified (FIG. 3).

[3] = system: p53 responsive proteins (Bax, Fas, caspase 8) and PARP in engineered MDA-MB-468 cells; assay: Immunoblot of p53 responsive proteins and PARP cleavage after doxycycline induction; type: cell-based, human; conditions: for Bax expression: doxycycline 2 μg/ml, 12, 36 and 48 hours; for PARP cleavage product: after 4-repeat induction with doxycycline
Procedure: Changes in the protein expression levels for the pro-apoptotic protein Bax, an active p53 responsive gene, induced by exposure to the tetracycline analog doxycycline (2 μg/ml) for 12, 36 and 48 hours. Engineered MDA-MB-468 cells were collected after the indicated exposure times and the total protein was extracted, an aliquot was run on a 12% acrylamide/SDS PAGE gel, and blotted onto nitrocellulose membranes. Antibodies specific for Bax, the 4-repeat (p53) and PARP were used to determine expression levels and α-tubulin was used as a loading control.
Changes in the protein expression levels for the p53 responsive genes encoding Fas and caspase 8, 24 hours after the engineered MDA-MB-468 cells were exposed to the indicated concentrations of doxycycline. A PARP cleavage product is also shown. α-tubulin was used as a loading control.
For the tetracycline-inducible peptide systems in MDA-MB-468 cells, cells were exposed to various concentrations of doxycycline for 24-48 hours and cell death measured by trypan blue exclusion (only dying cells are permeable to this dye) and propidium iodide staining (as above, in cells undergoing apoptosis DNA is cleaved so less PI can be bound resulting in accumulation of a sub-G1 peak of cells on flow cytometry). […] This implies a unique difference between the monomer and the 4 repeat.
as §1

MDA-MB-468 cells [4] = assay: Trypan blue exclusion in tetracycline-inducible peptide-expressing cells; type: cell-based, human; conditions: doxycycline induction 24-48 hours
Excerpt: The MDA-MB-468 breast cancer cell line which expresses high levels of mutant p53 (Arg to His substitution at amino acid 273, one of the two most common p53 mutations in human cancers) was chosen as the model system. The tetracycline-inducible RevTet-On System (Clontech Laboratories, Palo Alto, Calif.) was used for these studies. Stably expressed reverse tetracycline-controlled transactivator (rtTA), under the control of a CMV promoter, was first established in the MDA-MB-468 cell line. Initially immunoblots with an antibody against the transactivator were used to identify high expression; subsequently a luciferase reporter system was used to identify highly inducible clones. This assay incorporated a luciferase reporter (Promega, Madison, Wis.) with the inducible pREvTRE vector of the RevTet-On system to measure the ability of tetracycline to induce luciferase activity. […]
(§2) For the tetracycline-inducible peptide systems in MDA-MB-468 cells, cells were exposed to various concentrations of doxycycline for 24-48 hours and cell death measured by trypan blue exclusion (only dying cells are permeable to this dye) and propidium iodide staining (as above, in cells undergoing apoptosis DNA is cleaved so less PI can be bound resulting in accumulation of a sub-G1 peak of cells on flow cytometry). […]

MDA-MB-468 cells [5] = assay: Propidium iodide staining / flow cytometry (sub-G1) in tetracycline-inducible peptide-expressing cells; type: cell-based, human
Procedure: Effects of endogenous, regulated expression of the 4 repeat peptide on cell viability. MDA-MB-468 cells engineered to express the palindromic p53 4 repeat peptide under the control of a tetracycline responsive promoter were cultured without or with the addition of 2 μg/ml doxycycline, an analog of tetracycline, for 24, 48 or 72 hours. Cells were collected, fixed in ice cold 70% ethanol and the DNA was stained with propidium iodide. Cell cycle profiles were obtained by flow cytometry and the percent of sub-G1 cell particles, indicative of apoptosis, was quantified.
The MDA-MB-468 breast cancer cell line which expresses high levels of mutant p53 (Arg to His substitution at amino acid 273, one of the two most common p53 mutations in human cancers) was chosen as the model system. The tetracycline-inducible RevTet-On System (Clontech Laboratories, Palo Alto, Calif.) was used for these studies. […]
as §2

9L rat glioma = assay: Survival of rats with intracerebral 9L glioma infused with adenovirus; type: in vivo, male fischer rats; conditions: concluding statement of rat glioma study
Procedure: Survival analysis of male rats initially injected with 5 μl of 10^5 9L cells over […] (Tumor implantation) through a catheter stereotactically inserted into the right caudate nucleus. These rats were subsequently infused with 7-8 μl volumes per day over 3 hours a day for a total of 7 days in three groups as follows: 2 rats received phosphate buffered saline (PBS control) solution, 3 rats received Ad/vector control virus (Empty Virus Control), and 10 rats received Ad/4-rep-p53p adenovirus containing the tetrapeptide C-terminal p53 peptide.) The average survival time for the groups were: 20 days for the PBS control group, 27 days for the adenovirus vector control group (23.25 days for the combined control groups) and 37.25 days for the Ad/4-rep-p53p Adenovirus treated group. Thus, the treatment group infected with the adenovirus containing the C-terminal palindromic tetrapeptide experienced an 86% increase in survival compared to the PBS controls and a 60% increase in survival compared to the combined controls. […]
For animal studies, 15 male fischer rats (age 12-14 weeks, 250 g) were anesthetized, and a 20 gauge plastic guide cannula was cemented into their skulls. […] The rats were monitored for an additional 44 days to determine differences in survival among groups.

[6] = system: normal cells including the pluripotent stem cells for granulocytes, erythrocytes, monocytes and macrophages; assay: Effect on normal cells; type: cell-based
MDA-MB-468 tumors = assay: Inducible expression in MDA-MB-468 tumors in athymic nude mice; type: in vivo; conditions: doxycycline 0.5 mg/ml in drinking water; described in present tense
Procedure: Four groups of ten animals each are used. Groups 1 and 2 are injected with one million MDA-MB-468 cells containing the inducibly expressible palindromic tetramer in 0.5 ml of basement membrane media. Groups 3 and 4 are injected with one million MDA-MB-468 cells containing the inducibly expressible GFP. The tumors are allowed to develop to a measurable state (approximately 2-3 weeks). Then groups 1 and 3 are given 0.5 mg/ml doxycycline in their drinking water, and groups 2 and 4 are given drinking water without doxycycline. Tumor sizes are measured daily. Animals are then euthanized and the tumors removed for analysis. Tumor sections are assayed for levels of apoptosis by DNA cleavage assay (TUNEL) and activation of caspases and cleavage of PARP.

Compound | effect of caspase 8 inhibitor on death/TUNEL shift induced by palindromic peptide expression [1] | cell death (PI staining, sub-G1 population) [2] [%] | Bax expression [3] | decrease in viability (trypan blue exclusion) (MDA-MB-468 cells [4]) | cell death (sub-G1 peak, propidium iodide staining) (MDA-MB-468 cells [5]; after doxycycline induction, stably expressing cell lines) [%] | apoptosis (propidium iodide staining and flow cytometry) (MDA-MB-468 cells [5]; doxycycline induction, FIG. 4) | Fas expression ([3]; 24 hours doxycycline) | caspase 8 expression ([3]; 24 hours doxycycline) | PARP cleavage product [3] | PARP cleavage product ([3]; listed as C-terminal p53 palindromic tetramer) | apoptosis of cancer cells in animals (9L rat glioma) | effect on normal cells [6] | apoptosis of cancer cells in animals (MDA-MB-468 tumors)
CC[C@H](C)[C@H](NC(=O)OCc1ccccc1)C(=O)N[C@@H](CCC(=O)OC)C(=O)N[C@H](C(=O)N[C@@H](CC(=O)OC)C(=O)CF)[C@@H](C)O [IETD-FMK] (Cbz-IE(OMe)TD(OMe)-CH2F) | no shift occurs; also recorded: eliminated | – | – | – | – | – | – | – | – | – | – | – | –
CSCC[C@H](NC(=O)[C@H](CCCCN)NC(=O)[C@H](Cc1c[nH]c2ccccc12)NC(=O)[C@H](CCCCN)NC(=O)[C@H](CCCCN)NC(=O)[C@H](CCCCN)NC(=O)[C@H](CCCCN)NC(=O)[C@H](Cc1c[nH]cn1)NC(=O)[C@H](CCCNC(=N)N)NC(=O)[C@H](CO)NC(=O)[C@@H](NC(=O)[C@H](CO)NC(=O)[C@H](CCC(N)=O)NC(=O)CNC(=O)[C@H](CCCCN)NC(=O)[C@H](CCCCN)NC(=O)[C@H](CO)NC(=O)[C@H](CCCCN)NC(=O)[C@H](CC(C)C)NC(=O)[C@H](Cc1c[nH]cn1)NC(=O)[C@H](CO)NC(=O)[C@H](CO)NC(=O)[C@H](Cc1c[nH]cn1)NC(=O)[C@H](C)NC(=O)[C@H](CCCNC(=N)N)NC(=O)[C@H](CO)NC(=O)CN)[C@@H](C)O)C(=O)N[C@@H](CCCNC(=N)N)C(=O)N[C@@H](CCCNC(=N)N)C(=O)N[C@@H](CC(N)=O)C(=O)N[C@@H](CCC(N)=O)C(=O)N[C@@H](Cc1ccccc1)C(=O)N[C@@H](Cc1c[nH]c2ccccc12)C(=O)N[C@H](C(=O)N[C@@H](CCCCN)C(=O)N[C@H](C(=O)N[C@@H](CCC(N)=O)C(=O)N[C@@H](CCCNC(=N)N)C(=O)NCC(=O)O)C(C)C)C(C)C [p53 C-terminal peptide (single repeat), reference compound] (H-GSRAHSSHLKSKKGQSTSRHKKKKWKMRRNQFWVKVQRG-OH; N-terminus and C-terminus assumed) | – | 23 | did not | – | – | – | – | – | – | – | – | – | –
p53 palindromic tetramer: C-terminal p53 palindromic tetrapeptide (four aa 353-393 segments, glycine-linked) expressed in cells from inducible or viral construct | – | – | increase in the expression | greater than 80% | 43 | greater than 40% | increase in the expression | increase in the expression | observed even 12 hours after | observed | found to induce apoptosis | no to minimal effect | found to induce apoptosis

From US7772367B2, “C-terminal p53 palindromic peptide that induces apoptosis of cells with aberrant p53 and uses thereof” (The Trustees of Columbia University in the City of New York, priority 2004, dated 2010)
